Experiment [1] relates to Jurkat NFκB-luciferase cells. The experiment in a line: Jurkat NFκB-Luciferase Assay. Type of experiment: cell-based. The conditions noted are these: Homo sapiens; Jurkat NFκB-luciferase cells activated with anti-CD3 antibody (OKT3), 2.5 hrs at 37° C.; geometric mean; read-out: DGK NFKb Luciferase EC50. The procedure, abridged: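 Jurkat NFκB-luciferase reporter cells stimulated on plate-bound anti-CD3 (5 ug/ml coating) with compound, 2.5 hrs at 37° C then 30 min at 25° C; luminescence read with One-Glo Ex. Normalized to DMSO (basal) and 1 micromolar compound (maximum) controls; EC50 from four-parameter fit, geometric mean across experiments.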

Another experiment addresses human DGKα (Homo sapiens (Human), UniProt P23743). The experiment in a line: DGKα Biochemical Activity Assay (ADP-Glo). The conditions noted are these: recombinant DGKα 1 nM, 100 μM ATP, 18:1 DAG/POPS/octylglucoside micelles, 1 hour at 25° C.; geometric mean; read-out: HTBS DGKa 1X ATP KM IC50. The method in brief:
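Recombinant DGKα (1 nM final) was preincubated with compound for 15 min, then reacted for 1 h at 25 °C with 100 μM ATP and octylglucoside micelles of 0.85 mM 18:1 DAG and 6.75 mM POPS in pH 7.2 MOPS with 5 mM MgCl2. ADP formed was read by ADP-Glo luminescence. IC50 came from four-parameter fits normalized to DMSO and 50 μM CU3, and values were geometric means.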

Sequence of human DGKα (P23743 whole entry): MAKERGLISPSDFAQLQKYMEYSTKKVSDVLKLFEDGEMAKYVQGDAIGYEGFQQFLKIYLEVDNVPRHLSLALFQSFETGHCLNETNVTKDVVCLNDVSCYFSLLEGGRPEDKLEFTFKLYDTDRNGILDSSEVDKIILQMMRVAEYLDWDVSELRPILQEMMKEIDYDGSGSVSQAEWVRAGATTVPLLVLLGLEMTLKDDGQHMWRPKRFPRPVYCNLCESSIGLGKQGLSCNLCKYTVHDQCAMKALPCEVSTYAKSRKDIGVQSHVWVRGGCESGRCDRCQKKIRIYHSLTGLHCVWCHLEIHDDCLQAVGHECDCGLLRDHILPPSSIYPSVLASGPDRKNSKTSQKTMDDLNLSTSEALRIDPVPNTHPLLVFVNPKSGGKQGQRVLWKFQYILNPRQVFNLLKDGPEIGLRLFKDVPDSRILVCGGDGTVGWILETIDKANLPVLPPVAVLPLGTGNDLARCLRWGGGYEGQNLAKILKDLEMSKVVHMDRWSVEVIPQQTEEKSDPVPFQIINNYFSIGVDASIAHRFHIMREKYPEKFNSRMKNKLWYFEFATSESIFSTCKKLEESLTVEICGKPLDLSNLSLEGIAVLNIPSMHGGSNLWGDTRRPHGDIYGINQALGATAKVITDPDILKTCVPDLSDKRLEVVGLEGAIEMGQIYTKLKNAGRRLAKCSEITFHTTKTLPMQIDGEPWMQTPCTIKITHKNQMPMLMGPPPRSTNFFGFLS

Turning to `Cc1nnc2nc(N(CC(F)F)c3cc(F)cc(C#CC(C)(C)C(F)(F)F)c3)c3cc(F)cnc3n12` [Example 103, N-(2,2-difluoroethyl)-3-fluoro-N-(3-fluoro-5-(4,4,4-trifluoro-3,3-dimethylbut-1-yn-1-yl)phenyl)-9-methylpyrido[3,2-e][1,2,4]triazolo[4,3-a]pyrimidin-5-amine], in experiment [1], the EC50 is 1.64 nM. Besides, at human DGKα, the half-inhibitory concentration (IC50) was 9.34 nM.
In the case of `Cc1nnc2nc(N(CC(F)F)c3cc(F)cc(C#CC4(C)CC4)c3)c3cc(F)cnc3n12` [Example 104, N-(2,2-difluoroethyl)-3-fluoro-N-(3-fluoro-5-((1-methylcyclopropyl)ethynyl)phenyl)-9-methylpyrido[3,2-e][1,2,4]triazolo[4,3-a]pyrimidin-5-amine], in experiment [1], the 50% effective concentration (EC50) was determined as 3.53 nM. In addition, the IC50 on human DGKα turned out to be 14.5 nM.
The like results for `Cc1nnc2nc(N(CC(F)F)c3cc(F)cc(C#CC4(C(F)F)CC4)c3)c3cc(F)cnc3n12` [Example 105, N-(2,2-difluoroethyl)-N-(3-((1-(difluoromethyl)cyclopropyl)ethynyl)-5-fluorophenyl)-3-fluoro-9-methylpyrido[3,2-e][1,2,4]triazolo[4,3-a]pyrimidin-5-amine] were, in that order, 5.57 nM and 13.3 nM.
The like results for `Cc1nnc2nc(N(CC(F)F)c3cc(F)cc(C#CC4(C(F)(F)F)CC4)c3)c3cc(F)cnc3n12` [Example 106, N-(2,2-difluoroethyl)-3-fluoro-N-(3-fluoro-5-((1-(trifluoromethyl)cyclopropyl)ethynyl)phenyl)-9-methylpyrido[3,2-e][1,2,4]triazolo[4,3-a]pyrimidin-5-amine] were, in that order, 2.25 nM and 6.42 nM.
For the molecule `Cc1nnc2nc(N3CCCc4c(C#CC5(C)CC5)cccc43)c3cc(F)cnc3n12` [Example 107, 3-fluoro-9-methyl-5-(5-((1-methylcyclopropyl)ethynyl)-3,4-dihydroquinolin-1(2H)-yl)pyrido[3,2-e][1,2,4]triazolo[4,3-a]pyrimidine], the 50% effective concentration (EC50) in experiment [1] came out at 1.85 nM. For the same molecule, the half-maximal inhibitory concentration (IC50) on human DGKα was 11.9 nM.
On to `Fc1cnc2c(c1)c(N1CCCc3c(C#CC4(C(F)F)CC4)cccc31)nc1nncn12` [Example 108, 5-(5-((1-(difluoromethyl)cyclopropyl)ethynyl)-3,4-dihydroquinolin-1(2H)-yl)-3-fluoropyrido[3,2-e][1,2,4]triazolo[4,3-a]pyrimidine], for which the concentration giving a half-maximal response (EC50) in experiment [1] worked out at 3.08 nM. Also, the IC50 on human DGKα came out at 3.43 nM.
With `CC1(C#Cc2cccc3c2CCCN3c2nc3nncn3c3ncc(F)cc23)CC1` [Example 109, 3-fluoro-5-(5-((1-methylcyclopropyl)ethynyl)-3,4-dihydroquinolin-1(2H)-yl)pyrido[3,2-e][1,2,4]triazolo[4,3-a]pyrimidine], the half-maximal effective concentration (EC50) in experiment [1] worked out at 1.75 nM. Moreover, the IC50 at human DGKα amounted to 5.62 nM.
The matching figures for `COc1ccc2c(N(C)c3cccc(C#CC(C)(C)O)c3)nc3nncn3c2n1` [Example 114, 4-(3-((2-methoxypyrido[3,2-e][1,2,4]triazolo[4,3-a]pyrimidin-5-yl)(methyl)amino)phenyl)-2-methylbut-3-yn-2-ol]: 27 nM and 75.4 nM.
The matching figures for `COc1ccc2c(N(C)c3cccc(-c4ccc(S(F)(F)(F)(F)F)cc4)c3)nc3nncn3c2n1` [Example 115, 2-methoxy-N-methyl-N-(4′-(pentafluoro-16-sulfaneyl)-[1,1′-biphenyl]-3-yl)pyrido[3,2-e][1,2,4]triazolo[4,3-a]pyrimidin-5-amine]: 1.74 nM and 448 nM.
`CNc1ccc2c(N(C)c3cccc(-c4ccc(S(F)(F)(F)(F)F)cc4)c3)nc3nncn3c2n1` [Example 116, N2,N5-dimethyl-N5-(4′-(pentafluoro-16-sulfaneyl)-[1,1′-biphenyl]-3-yl)pyrido[3,2-e][1,2,4]triazolo[4,3-a]pyrimidine-2,5-diamine]: the half-maximal effective concentration (EC50) in experiment [1] stood at 5.67 nM. Further, the IC50 on human DGKα worked out at 439 nM.
The matching figures for `CN(c1cccc(-c2ccc(S(F)(F)(F)(F)F)cc2)c1)c1nc2nncn2c2nc(N)ccc12` [Example 117, N5-methyl-N5-(4′-(pentafluoro-16-sulfaneyl)-[1,1′-biphenyl]-3-yl)pyrido[3,2-e][1,2,4]triazolo[4,3-a]pyrimidine-2,5-diamine]: 4.88 nM and 30.4 nM.
As for `CNc1ccc2c(N(C)c3cccc(C#CC(C)(C)C)c3)nc3nncn3c2n1` [Example 118, N5-(3-(3,3-dimethylbut-1-yn-1-yl)phenyl)-N2,N5-dimethylpyrido[3,2-e][1,2,4]triazolo[4,3-a]pyrimidine-2,5-diamine], in experiment [1], the concentration for a half-maximal effect (EC50) came out at 5.79 nM. Moreover, the IC50 at human DGKα came out at 105 nM.
For the molecule `CNc1ccc2c(N(C)c3cccc(-c4ccc(OC)nc4)c3)nc3nncn3c2n1` [Example 119, N5-(3-(6-methoxypyridin-3-yl)phenyl)-N2,N5-dimethylpyrido[3,2-e][1,2,4]triazolo[4,3-a]pyrimidine-2,5-diamine], the EC50 in experiment [1] was found to be 52.2 nM. Further, on human DGKα, the IC50 amounted to 392 nM.
With `CNc1ccc2c(N(C)c3cccc(-c4ccc(C5CC5)cc4)c3)nc3nncn3c2n1` [Example 120, N5-(4′-cyclopropyl-[1,1′-biphenyl]-3-yl)-N2,N5-dimethylpyrido[3,2-e][1,2,4]triazolo[4,3-a]pyrimidine-2,5-diamine], the concentration giving a half-maximal response (EC50) in experiment [1] came to 0.664 nM. For the same molecule, the IC50 at human DGKα came out at 19.3 nM.
For the molecule `CN(c1cccc(C#CC2(C(F)(F)F)CC2)c1)c1nc2nncn2c2nc(N)ccc12` [Example 121, N5-methyl-N5-(3-((1-(trifluoromethyl)cyclopropyl)ethynyl)phenyl)pyrido[3,2-e][1,2,4]triazolo[4,3-a]pyrimidine-2,5-diamine], in experiment [1], the concentration giving a half-maximal response (EC50) turned out to be 6.93 nM. The half-inhibitory concentration (IC50) at human DGKα came to 46.2 nM.
Take `Cc1ccc2c(N(C)c3cccc(C#CC(C)(C)C)c3)nc3nncn3c2n1` [Example 122, N-(3-(3,3-dimethylbut-1-yn-1-yl)phenyl)-N,2-dimethylpyrido[3,2-e][1,2,4]triazolo[4,3-a]pyrimidin-5-amine]: in experiment [1], the concentration for a half-maximal effect (EC50) was found to be 4.15 nM. Moreover, the IC50 on human DGKα is 42.7 nM.
The like results for `Cc1ccc2c(N(C)c3cccc(-c4ccc(C5CC5)cc4)c3)nc3nncn3c2n1` [Example 123, N-(4′-cyclopropyl-[1,1′-biphenyl]-3-yl)-N,2-dimethylpyrido[3,2-e][1,2,4]triazolo[4,3-a]pyrimidin-5-amine] were, in that order, 2.05 nM and 12.7 nM.
For `Cc1ccc2c(N(C)c3cccc(-c4ccc(C(F)F)cc4)c3)nc3nncn3c2n1` [Example 124, N-(4′-(difluoromethyl)-[1,1′-biphenyl]-3-yl)-N,2-dimethylpyrido[3,2-e][1,2,4]triazolo[4,3-a]pyrimidin-5-amine], the concentration giving a half-maximal response (EC50) in experiment [1] came out at 7.45 nM. Further, the half-inhibitory concentration (IC50) at human DGKα turned out to be 12.3 nM.
For `Cc1ccc2c(N(C)c3cccc(Cl)c3)nc3nncn3c2n1` [Example 125, N-(3-chlorophenyl)-N,2-dimethylpyrido[3,2-e][1,2,4]triazolo[4,3-a]pyrimidin-5-amine], the EC50 in experiment [1] was 169 nM. The IC50 at human DGKα is 734 nM.
The like results for `CN(c1cccc(C#CC(C)(C)C)c1)c1nc2nncn2c2nc(N)ccc12` [Example 126, N5-(3-(3,3-dimethylbut-1-yn-1-yl)phenyl)-N5-methylpyrido[3,2-e][1,2,4]triazolo[4,3-a]pyrimidine-2,5-diamine] were, in that order, 3.15 nM and 21.4 nM.
Take `CN(c1cccc(-c2ccc(C3CC3)cc2)c1)c1nc2nncn2c2nc(N)ccc12` [Example 127, N5-(4′-cyclopropyl-[1,1′-biphenyl]-3-yl)-N5-methylpyrido[3,2-e][1,2,4]triazolo[4,3-a]pyrimidine-2,5-diamine]: the half-maximal effective concentration (EC50) in experiment [1] came to 1.43 nM. At human DGKα, the half-inhibitory concentration (IC50) turned out to be 7.25 nM.
The like results for `COc1ccc2c(N(C)c3cccc(C#CC(C)(C)C)c3)nc3nncn3c2n1` [Example 128, N-(3-(3,3-dimethylbut-1-yn-1-yl)phenyl)-2-methoxy-N-methylpyrido[3,2-e][1,2,4]triazolo[4,3-a]pyrimidin-5-amine] were, in that order, 3.46 nM and 102 nM.
As for `COc1ccc2c(N(C)c3cccc(-c4ccc(C5CC5)cc4)c3)nc3nncn3c2n1` [Example 129, N-(4′-cyclopropyl-[1,1′-biphenyl]-3-yl)-2-methoxy-N-methylpyrido[3,2-e][1,2,4]triazolo[4,3-a]pyrimidin-5-amine], the EC50 in experiment [1] was 0.754 nM. In addition, the 50% inhibitory concentration (IC50) on human DGKα was determined as 28.9 nM.
As for `COc1ccc2c(N(C)c3cccc(-c4ccc(C(F)F)cc4)c3)nc3nncn3c2n1` [Example 130, N-(4′-(difluoromethyl)-[1,1′-biphenyl]-3-yl)-2-methoxy-N-methylpyrido[3,2-e][1,2,4]triazolo[4,3-a]pyrimidin-5-amine], the 50% effective concentration (EC50) in experiment [1] was found to be 2.52 nM. In addition, the IC50 on human DGKα stood at 55 nM.
With `CN(c1cccc(-c2ccc(C(F)F)cc2)c1)c1nc2nncn2c2nc(N)ccc12` [Example 131, N5-(4′-(difluoromethyl)-[1,1′-biphenyl]-3-yl)-N5-methylpyrido[3,2-e][1,2,4]triazolo[4,3-a]pyrimidine-2,5-diamine], the 50% effective concentration (EC50) in experiment [1] worked out at 7.69 nM. Also, the IC50 on human DGKα was determined as 11.5 nM.
As to `CN(c1cccc(Cl)c1)c1nc2nncn2c2nc(N)ccc12` [Example 132, N5-(3-chlorophenyl)-N5-methylpyrido[3,2-e][1,2,4]triazolo[4,3-a]pyrimidine-2,5-diamine], in experiment [1], the 50% effective concentration (EC50) amounted to 91.4 nM. Further, on human DGKα, the IC50 is 388 nM.

Values taken from patent publication US11926628B2 (Gilead Sciences, Inc., priority 2021, dated 2024).
